Where two headings read alike, the source gives them in different places. Marks after values point to notes of the source that are not given here.
Tests used:
293T cells [1] = experiment: Western blot analysis of apoptosis and autophagy; format: cell-based, human; settings: 8 hours, bufalin 1 nM to 10 μM, staurosporine 4 μM; for induction of LC3B-II (marker of autophagy): BFA 100 nM
Method: (§1) The cells were also exposed to 0.1% Triton X-100 for 1 hr before the viability assay as a control (FIG. 16E). Data represent mean values±s.d. (n=3). […] Cells were harvested and washed, then stained with Allophycocyanin (APC) conjugated Annexin V and 7-AAD for 15 minutes and subjected to flow cytometry analysis. The number in each graph is the percentile of Annexin V or 7-AAD positive populations. […] Total protein lysates were prepared and separated on SDS-PAGE for Western blot analysis of PARP1, cleaved PARP1, cleaved Caspase3, LC3B, ATP1a1, and beta-actin expression.
Apoptosis and autophagy were also analyzed by Western blots. […] Total protein lysates were prepared and separated on SDS-PAGE for Western blot analysis of PARP1, cleaved PARP1, cleaved Caspase3, LC3B, ATP1a1, and beta-actin expression.

IFNβ promoter = experiment: cells; format: cell-based, human; settings: for effect of ion-channel ligands on IFNβ reporter: increasing concentrations; for IC50: Homo sapiens, HEK-293T, read-out: IC50 for inhibition of virus induced IFNβ expression
Method: 293T cells were transfected with the IFNβ promoter driving a firefly luciferase reporter together a reference renilla luciferase reporter plasmid. […] Firefly luciferase activities were measured after another 24 hrs and normalized to that of renilla activities.
293T cells were transfected with an IFNβ promoter driving luciferase reporter, 24 hrs later, increasing amounts (10 nM to 10 uM) of Ouabain (FIG. 8A) or digoxin (FIG. 8B) were added to cells before the Sendai virus infection. Luciferase activities were measured one day later.
Approximately 40,000 293T cells were seeded in a 96 well plate, and co-transfected with IFNβ-110 firefly luciferase reporter and renilla luciferase plasmids (Fitzgerald, K. A. et al. IKKepsilon and TBK1 are essential components of the IRF3 signaling pathway. Nat Immunol 4, 491-6 (2003)). After 24 hrs, cells were treated with various chemicals at the indicated concentrations, and sendai virus infection was initiated one hour later. After another 24 hrs, cells were lysed and subjected to Dual-Glo luciferase assay analysis (Promega) with an Analyst AD plate reader.
Human 293T cells were transfected with the IFNβ promoter driving the expression of luciferase construct. The cells were treated with a library of chemical compounds, and sendai virus (SeV) infection initiated one hour later. Luciferase activity was measured after another 24 hrs of culture. Signals were normalized to the samples not treated with chemicals.

endogenous IFNβ gene = experiment: RT-PCR of virus induced endogenous IFNβ gene in 293T cells treated with ion-channel modulators; format: cell-based, human; settings: 10 uM, 6 hrs
Method: 293T cells were treated with 10 uM of nimodipine, diazoxide or phenamil 30 min before Sendai virus infection, 6 hrs later total RNA were extracted and the expression of various genes were analyzed by RT-PCR.
Since the major function of the pump is to maintain the cellular ion homeostasis, the inventors reasoned that it might be possible to inhibit or stimulate IFNβ induction by varying the intracellular ion concentration. The inventors thus performed luciferase reporter assays with an ion-channel ligand library, which contains various modulators for sodium, potassium, calcium and chloride channels. The experiments were conducted similarly to the initial screening assays: 293T cells were transfected with reporter plasmid, then chemical ligands were added before starting virus infection, and luciferase activity measured after another 24 hrs.

TNF signaling = settings: Yang et al.; blocks TRADD recruitment, inhibits IKBα degradation; cited from earlier work
293T cells [2] = experiment: Flow cytometry analysis of apoptosis (Annexin V / 7-AAD); format: cell-based, human; settings: bufalin 1 μM 8 hours; staurosporine 4 μM 4 hours
Method: as §1
Treated cells and untreated control cells were harvested and washed with PBS, and stained with APC conjugated Annexin V and 7-AAD (both from BD Biosciences) in Annexin V binding buffer (10 mM HEPES, pH 7.4, 140 mM NaCl, 2.5 mM CaCl2) for 15 minutes at room temperature, and then subjected to flow cytometry analysis on a FACSCalibur (BD Biosciences).
Cells were harvested and washed, then stained with Allophycocyanin (APC) conjugated Annexin V and 7-AAD for 15 minutes and subjected to flow cytometry analysis. […] 11 for sturosporine.

CO/C1=C\C(C)=C\[C@@H](C)[C@@H](O)[C@@H](C)C/C(C)=C/C=C/[C@H](OC)[C@@H]([C@@H](C)[C@@H](O)[C@H](C)[C@@]2(O)C[C@@H](O)[C@H](C)[C@@H](C(C)C)O2)OC1=O [BFA, bafilomycin A1]
induction of LC3B-II (marker of autophagy) (293T cells [1]): induced

O=C(Nc1cccc(Nc2cc(Nc3cccc(C(F)(F)F)c3)ncn2)c1)C1CC1 [EGF receptor inhibitor]
Inhibition % @ 10 μM of virus induced IFNβ expression (IFNβ promoter; chemical library screen): 38.5%

CC#CC(=O)Nc1cc2c(Nc3ccc(F)c(Cl)c3)ncnc2cn1 [EGFR/ErbB-2/ErbB-4 Inhibitor]
Inhibition % @ 10 μM of virus induced IFNβ expression (IFNβ promoter; chemical library screen): 20.6%

Cn1c2ccccc2c2c3c(c4c5ccccc5n(CCC#N)c4c21)CNC3=O [Go 6976]
Inhibition % of virus induced IFNβ expression (IFNβ promoter; tested at 3 μM, chemical library screen): 55.9* %

O=C(Nc1ccc([N+](=O)[O-])cc1O)Nc1ccccc1Br [SB 225002]
Inhibition % @ 10 μM of virus induced IFNβ expression (IFNβ promoter; chemical library screen): 50.8%

CC1=NS(=O)(=O)c2cc(Cl)ccc2N1 [diazoxide, Diazoxide]
effect of ion-channel ligands on IFNβ reporter (IFNβ promoter): more inhibition | virus induced expression of the endogenous IFNβ gene (endogenous IFNβ gene): similarly inhibited

C[C@H]1O[C@@H](O[C@H]2[C@@H](O)C[C@H](O[C@H]3[C@@H](O)C[C@H](O[C@H]4CC[C@@]5(C)[C@H](CC[C@@H]6[C@@H]5CC[C@]5(C)[C@@H](C7=CC(=O)OC7)CC[C@]65O)C4)O[C@@H]3C)O[C@@H]2C)C[C@H](O)[C@@H]1O [digitoxin]
TNF signaling (TNF signaling): inhibit

C[C@H]1O[C@@H](O[C@H]2[C@@H](O)C[C@H](O[C@H]3[C@@H](O)C[C@H](O[C@H]4CC[C@@]5(C)[C@H](CC[C@@H]6[C@@H]5C[C@@H](O)[C@]5(C)[C@@H](C7=CC(=O)OC7)CC[C@]65O)C4)O[C@@H]3C)O[C@@H]2C)C[C@H](O)[C@@H]1O [digoxin]
IC50 (IFNβ promoter): 56.6 nM

C[C@@H]1O[C@@H](O[C@H]2C[C@@H](O)[C@]3(CO)[C@H]4[C@H](O)C[C@]5(C)[C@@H](C6=CC(=O)OC6)CC[C@]5(O)[C@@H]4CC[C@]3(O)C2)[C@H](O)[C@H](O)[C@H]1O [ouabain]
IC50 (IFNβ promoter; 293T cells, Sendai virus): 64.8 nM

NC(=Nc1ccccc1)NC(=O)c1nc(Cl)c(N)nc1N [phenamil]
effect of ion-channel ligands on IFNβ reporter (IFNβ promoter): consistently enhanced | virus induced expression of the endogenous IFNβ gene (endogenous IFNβ gene): less potent

CN[C@@H]1C[C@H]2O[C@@](C)([C@@H]1OC)n1c3ccccc3c3c4c(c5c6ccccc6n2c5c31)C(=O)NC4 [staurosporine]
Percentile of Annexin V or 7-AAD positive populations (293T cells [2]): 17.11 | cleavage products of PARP1 and Caspase3 (indication of apoptosis) (293T cells [1]): induced | induction of LC3B-II (marker of autophagy) (293T cells [1]): induced

Reference: patent US20140088056A1, “CARDIAC GLYCOSIDES ARE POTENT INHIBITORS OF INTERFERON-BETA GENE EXPRESSION” (priority 2010, published 2014)
